Assay results published in patent US20130217681A1, “METHOD AND COMPOSITION FOR WEIGHT-GAIN MANAGEMENT” (TECHNION RESEARCH AND DEVELOPMENT FOUNDATION LTD., priority 2010, published 2013).
Where “and” joins values, the source holds several entries; their conditions need not be identical. Identical values can stand only once. Like-named read-outs stand apart in the source and are kept apart here.

Columns and labels:
[1] = betahistine in a small group (n=7) of olanzapine-treated first-episode schizophrenia patients; format: in vivo, Human
Description: Similarly, betahistine was associated with a modest attenuation of weight gain in a small group (n=7) of olanzapine-treated first-episode schizophrenia patients: the betahistine group 3.86 kg versus the placebo group 5.03 kg.
Similarly, betahistine was associated with a modest attenuation of weight gain in a small group (n=7) of olanzapine-treated first-episode schizophrenia patients: the betahistine group gained 3.86 kg versus the placebo group 5.03 kg.

animal models of obesity = conditions: cited from earlier work
[2] = olanzapine-treated first episode schizophrenia patients, cited from earlier work
[3] = baseline to endpoint, 6 weeks
Description: Human patients (male and female, age 18-45) hospitalized at Tirat Carmel Mental Health Center (Tirat Carmel, Israel) were screened. Eligible patients were interviewed using the Structured Clinical Interview for DSM-IV-TR Axis I Disorders, Patient Edition, and those who meet DSM-IV-TR criteria for schizophrenic or schizophreniform disorder were enrolled.
A double-blind, placebo-controlled, randomized design was used in the study.

[4] = in 10 weeks; cited from earlier work
[5] = cited from earlier work; for weight gain, mean (SD): olanzapine-treated patients, reboxetine 4 mg/day, 31 patients reboxetine, 29 placebo

For `CNCCc1ccccn1` [betahistine], the “weight gain, mean (SD)” value [1] is given as 3.86 kg, the “weight gain, mean (SD)” value ([1]; listed as Olanzapine+betahistine) is given as 3.86 (0.9) kg and the “food intake” value (animal models of obesity) is given as “inhibit food intake”. The “tolerability” value [2] was “safe, well tolerated” and the “effect on weight gain” value ([2]; small sample, open design) was “prevents weight gain”.

For `Cc1cc2c(s1)Nc1ccccc1N=C2N1CCN(C)CC1` [olanzapine + placebo, olanzapine], the “change in triglyceride level” value [3] is given as “almost two-fold increase”, the “weight gain induced in treated patients” value [4] is given as 3.5 kg and the “patients who gained at least 7% of their initial weight (clinically significant weight gain)” value (6 week trial, 30 vs 13 patients) is given as 46.1%. The “weight gain during the trial, average (SD)” value (6 week trial, olanzapine 10 mg, betahistine 48 mg/day, reboxetine 4 mg, Example 1) was 5.5 (2.7) kg, the body weight (Week 1) was 70.4 kg and the “increase in body weight, Δ from baseline” value (Week 1) was 1.2 kg^. The body weight (Week 2) was 71.3 kg, the “increase in body weight, Δ from baseline” value (Week 2) was 2.3 kg and the body weight (Week 3) was 72 kg. The “increase in body weight, Δ from baseline” value (Week 3) was 3.8 kg, the body weight (Week 4) was 73.4 kg and the “increase in body weight, Δ from baseline” value (Week 4) was 4.3 kg. For the same compound, the body weight (Week 5) was 74.2 kg, the “increase in body weight, Δ from baseline” value (Week 5) was 5.4 kg and the body weight (Week 6) was 75.4 kg. The “increase in body weight, Δ from baseline” value (Week 6) was 5.5 kg and the “weight gain, mean (SD)” value [5] was 4.91 (2.45) kg.

For `CCOc1ccccc1OC(c1ccccc1)C1CNCCO1` (centres unmarked) [reboxetine], the “weight-attenuating effect” value ([5]; low-dose 4 mg/day, schizophrenic patients treated with olanzapine) is listed as “significant weight-attenuating effect”, the “weight gain, mean (SD)” value [5] is listed as 3.31 (2.73) kg and 3.31 kg and the “weight gain, mean (SD)” value ([5]; listed as Olanzapine+reboxetine) is listed as 3.31 (2.73) kg. The “tolerability” value ([5]; reboxetine-olanzapine treated patients) was “safe and well tolerated and no clinically significant side effects were found”.
